{"source": "patent US11807625B2", "about": "“Capsid inhibitors for the prevention of HIV” (Gilead Sciences, Inc., priority 2019, dated 2023)", "assay": "PK of compound of Formula (Ia) after single subcutaneous dose of solution formulations in beagle dogs", "assay_type": "in vivo", "conditions": "individual dogs", "procedure": "Formulations containing the compound of Formula (Ia), or a pharmaceutically acceptable salt thereof, were prepared as solutions and optionally administered subcutaneously or intramuscularly to rats, rabbits, and/or dogs.\n(§1) A solution of about 400 mg/mL of the compound of Formula (Ia) having 17.00 w/w % water, 36.40 w/w % PEG 300, 35.20 w/w % of a sodium salt of a compound of Formula (Ia), 5.00 w/w % ethanol, and 6.40 w/w % poloxamer 188 was prepared. The solution was administered subcutaneously to male beagle dogs at a dose level of about 12 mg/kg and male Wistar Han rats at a dose level of about 50 mg/kg. The pharmacokinetic profiles were determined, and the results for dogs are summarized in Table and Table, while the results for rats are summarized in Table and Table below.\nas §1, with “500” for “400”, “14.06” for “17.00”, “30.12” for “36.40”\nA solution of about 300 mg/mL of the compound of Formula (Ia) having 23.33 w/w % water, 48.99 w/w % PEG 300, 26.47 w/w % of a sodium salt of a compound of Formula (Ia), and 1.21 w/w % poloxamer 188 was prepared. The solution was administered subcutaneously to male beagle dogs at a dose level of about 6 mg/kg and male Wistar Han rats at a dose level of about 50 mg/kg. The pharmacokinetic profiles were determined, and the results for dogs are summarized in Table and Table, while the results for rats are summarized in Table and Table below.\nas §1, with “18.80” for “17.00”, “40.25” for “36.40”, “34.38” for “35.20”, “1.57” for “6.40”\nas §1, with “500” for “400”, “16.29” for “17.00”, “34.88” for “36.40”, “41.92” for “35.20”, “1.91” for “6.40”\nas §1, with “20.90” for “17.00”, “44.72” for “36.40”, “and 34.38” for “35.20”, “(Ia)” for “(Ia), 5.00 w/w % ethanol, and 6.40 w/w % poloxamer 188”\nA solution of about 400 mg/mL of the compound of Formula (Ia) having 19.90 w/w % water, 42.59 w/w % PEG 300, 34.38 w/w % of a sodium salt of a compound of Formula (Ia), and 3.13 w/w % poloxamer 188 was prepared. The solution was administered subcutaneously to male beagle dogs at a dose level of about 12 mg/kg and male Wistar Han rats at a dose level of about 50 mg/kg. […]", "note": "Several values for one entry are separate records, joined by “and”; a condition that tells them apart may be missing. Equal entries are not always repeated."}
{"smiles": "CC(C)(C#Cc1ccc(-c2ccc(Cl)c3c(NS(C)(=O)=O)nn(CC(F)(F)F)c23)c([C@H](Cc2cc(F)cc(F)c2)NC(=O)Cn2nc(C(F)(F)F)c3c2C(F)(F)[C@@H]2C[C@H]32)n1)S(C)(=O)=O", "note": "[compound of Formula (Ia)]", "values": [{"measurement": "Plasma concentration", "setting": "0 h, SC 6 mg/kg, solution V, 300 mg/mL", "result": "BLQ"}, {"measurement": "Plasma concentration", "setting": "0 h, SC 12 mg/kg, solution T, 400 mg/mL", "result": "BLQ"}, {"measurement": "Plasma concentration", "setting": "0 h, SC 12 mg/kg, solution U, 500 mg/mL", "result": "BLQ"}, {"measurement": "Plasma concentration", "setting": "1.00 h, SC 6 mg/kg, solution V, 300 mg/mL", "result": "BLQ"}, {"measurement": "Plasma concentration", "setting": "1.00 h, SC 12 mg/kg, solution T, 400 mg/mL, 12 mg/kg", "result": "10.5 nM and 4.75 nM and 2.96 nM"}, {"measurement": "Plasma concentration", "setting": "1.00 h, SC 12 mg/kg, solution U, 500 mg/mL, 12 mg/kg", "result": "4.85 nM and 2.05 nM and 9.86 nM"}, {"measurement": "Plasma concentration", "setting": "3.00 h, SC 6 mg/kg, solution V, 300 mg/mL, 6 mg/kg", "result": "BLQ and 3.25 nM"}, {"measurement": "Plasma concentration", "setting": "3.00 h, SC 12 mg/kg, solution T, 400 mg/mL, 12 mg/kg", "result": "26.1 nM and 18.6 nM and 9.64 nM"}, {"measurement": "Plasma concentration", "setting": "3.00 h, SC 12 mg/kg, solution U, 500 mg/mL, 12 mg/kg", "result": "22.9 nM and 7.00 nM and 36.1 nM"}, {"measurement": "Plasma concentration", "setting": "8.00 h, SC 6 mg/kg, solution V, 300 mg/mL, 6 mg/kg", "result": "11.6 nM and 11.4 nM"}, {"measurement": "Plasma concentration", "setting": "8.00 h, SC 12 mg/kg, solution T, 400 mg/mL, 12 mg/kg", "result": "84.5 nM and 50.3 nM"}, {"measurement": "Plasma concentration", "setting": "8.00 h, SC 12 mg/kg, solution U, 500 mg/mL, 12 mg/kg", "result": "68.7 nM and 26.4 nM and 88.4 nM"}, {"measurement": "Plasma concentration", "setting": "24.0 h, SC 6 mg/kg, solution V, 300 mg/mL, 6 mg/kg", "result": "25.7 nM and 22.6 nM"}, {"measurement": "Plasma concentration", "setting": "24.0 h, SC 12 mg/kg, solution T, 400 mg/mL, 12 mg/kg", "result": "254 nM and 187 nM"}, {"measurement": "Plasma concentration", "setting": "24.0 h, SC 12 mg/kg, solution U, 500 mg/mL, 12 mg/kg", "result": "101 nM and 92.7 nM and 207 nM"}, {"measurement": "Plasma concentration", "setting": "48.0 h, SC 6 mg/kg, solution V, 300 mg/mL, 6 mg/kg", "result": "27.9 nM and 29.4 nM"}, {"measurement": "Plasma concentration", "setting": "48.0 h, SC 12 mg/kg, solution T, 400 mg/mL, 12 mg/kg", "result": "166 nM and 380 nM and 179 nM"}, {"measurement": "Plasma concentration", "setting": "48.0 h, SC 12 mg/kg, solution U, 500 mg/mL, 12 mg/kg", "result": "94.1 nM and 94.8 nM"}, {"measurement": "Plasma concentration", "setting": "72.0 h, SC 6 mg/kg, solution V, 300 mg/mL, 6 mg/kg", "result": "29.6 nM and 31.5 nM"}, {"measurement": "Plasma concentration", "setting": "72.0 h, SC 12 mg/kg, solution T, 400 mg/mL, 12 mg/kg", "result": "105 nM and 452 nM and 112 nM"}, {"measurement": "Plasma concentration", "setting": "72.0 h, SC 12 mg/kg, solution U, 500 mg/mL, 12 mg/kg", "result": "62.3 nM and 64.0 nM"}, {"measurement": "Plasma concentration", "setting": "96.0 h, SC 6 mg/kg, solution V, 300 mg/mL, 6 mg/kg", "result": "28.8 nM and 29.6 nM"}, {"measurement": "Plasma concentration", "setting": "96.0 h, SC 12 mg/kg, solution T, 400 mg/mL, 12 mg/kg", "result": "89.8 nM and 523 nM and 83.8 nM"}, {"measurement": "Plasma concentration", "setting": "96.0 h, SC 12 mg/kg, solution U, 500 mg/mL, 12 mg/kg", "result": "45.7 nM and 62.6 nM"}, {"measurement": "Plasma concentration", "setting": "168 h, SC 6 mg/kg, solution V, 300 mg/mL, 6 mg/kg", "result": "34.5 nM and 41.4 nM"}, {"measurement": "Plasma concentration", "setting": "168 h, SC 12 mg/kg, solution T, 400 mg/mL, 12 mg/kg", "result": "105 nM and 408 nM and 151 nM"}, {"measurement": "Plasma concentration", "setting": "168 h, SC 12 mg/kg, solution U, 500 mg/mL, 12 mg/kg", "result": "55.9 nM and 49.6 nM and 187 nM"}, {"measurement": "Plasma concentration", "setting": "336 h, SC 12 mg/kg, solution T, 400 mg/mL, 12 mg/kg", "result": "353 nM and 250 nM"}, {"measurement": "Plasma concentration", "setting": "336 h, SC 12 mg/kg, solution U, 500 mg/mL, 12 mg/kg", "result": "155 nM and 187 nM"}, {"measurement": "Plasma concentration", "setting": "504 h, SC 12 mg/kg, solution T, 400 mg/mL, 12 mg/kg", "result": "229 nM and 199 nM"}, {"measurement": "Plasma concentration", "setting": "504 h, SC 12 mg/kg, solution U, 500 mg/mL, 12 mg/kg", "result": "166 nM and 129 nM"}, {"measurement": "Plasma concentration", "setting": "672 h, SC 12 mg/kg, solution T, 400 mg/mL, 12 mg/kg", "result": "106 nM and 90.6 nM"}, {"measurement": "Plasma concentration", "setting": "672 h, SC 12 mg/kg, solution U, 500 mg/mL, 12 mg/kg", "result": "106 nM and 101 nM and 38.7 nM"}, {"measurement": "Plasma concentration", "setting": "840 h, SC 12 mg/kg, solution T, 400 mg/mL, 12 mg/kg", "result": "139 nM and 69.8 nM and 63.7 nM"}, {"measurement": "Plasma concentration", "setting": "840 h, SC 12 mg/kg, solution U, 500 mg/mL, 12 mg/kg", "result": "107 nM and 69.7 nM and 41.2 nM"}, {"measurement": "Plasma concentration", "setting": "1008 h, SC 12 mg/kg, solution T, 400 mg/mL, 12 mg/kg", "result": "71.1 nM and 74.2 nM"}, {"measurement": "Plasma concentration", "setting": "1008 h, SC 12 mg/kg, solution U, 500 mg/mL, 12 mg/kg", "result": "83.5 nM and 61.1 nM and 30.4 nM"}, {"measurement": "Plasma concentration", "setting": "1344 h, SC 12 mg/kg, solution T, 400 mg/mL, 12 mg/kg", "result": "35.6 nM and 30.6 nM"}, {"measurement": "Plasma concentration", "setting": "1344 h, SC 12 mg/kg, solution U, 500 mg/mL, 12 mg/kg", "result": "38.5 nM and 22.5 nM"}, {"measurement": "Plasma concentration", "setting": "1680 h, SC 12 mg/kg, solution T, 400 mg/mL, 12 mg/kg", "result": "34.6 nM and 17.3 nM"}, {"measurement": "Plasma concentration", "setting": "1680 h, SC 12 mg/kg, solution U, 500 mg/mL, 12 mg/kg", "result": "25.7 nM and 27.7 nM and 10.5 nM"}, {"measurement": "Plasma concentration", "setting": "2016 h, SC 12 mg/kg, solution T, 400 mg/mL, 12 mg/kg", "result": "7.9 nM (2×) and 19.6 nM"}, {"measurement": "Plasma concentration", "setting": "2016 h, SC 12 mg/kg, solution U, 500 mg/mL, 12 mg/kg", "result": "10.7 nM and 13.8 nM and 6.40 nM"}, {"measurement": "Plasma concentration", "setting": "2352 h, SC 12 mg/kg, solution T, 400 mg/mL, 12 mg/kg", "result": "7.6 nM and 5.7 nM"}, {"measurement": "Plasma concentration", "setting": "2352 h, SC 12 mg/kg, solution U, 500 mg/mL, 12 mg/kg", "result": "8.8 nM and 10.2 nM and 3.45 nM"}, {"measurement": "Plasma concentration", "setting": "3696 h, SC 6 mg/kg, solution V, 300 mg/mL", "result": "BLQ"}, {"measurement": "Plasma concentration", "setting": "4032 h, SC 6 mg/kg, solution V, 300 mg/mL", "result": "BLQ"}]}
